The text below walks through data of BindingDB's records for patent US9546164 (Genentech Inc, 2017).

The test addresses Sodium channel protein type 9 subunit alpha (Homo sapiens, UniProt Q15858). Nature of the test: Radioligand Binding Assay (EP) (In vitro Assay). The following applies: pH 7.4; 25 °C.

SMILES strings stand for the structures. pIC50: −log10 of the molar value.

Sequence of Sodium channel protein type 9 subunit alpha (Q15858 whole entry): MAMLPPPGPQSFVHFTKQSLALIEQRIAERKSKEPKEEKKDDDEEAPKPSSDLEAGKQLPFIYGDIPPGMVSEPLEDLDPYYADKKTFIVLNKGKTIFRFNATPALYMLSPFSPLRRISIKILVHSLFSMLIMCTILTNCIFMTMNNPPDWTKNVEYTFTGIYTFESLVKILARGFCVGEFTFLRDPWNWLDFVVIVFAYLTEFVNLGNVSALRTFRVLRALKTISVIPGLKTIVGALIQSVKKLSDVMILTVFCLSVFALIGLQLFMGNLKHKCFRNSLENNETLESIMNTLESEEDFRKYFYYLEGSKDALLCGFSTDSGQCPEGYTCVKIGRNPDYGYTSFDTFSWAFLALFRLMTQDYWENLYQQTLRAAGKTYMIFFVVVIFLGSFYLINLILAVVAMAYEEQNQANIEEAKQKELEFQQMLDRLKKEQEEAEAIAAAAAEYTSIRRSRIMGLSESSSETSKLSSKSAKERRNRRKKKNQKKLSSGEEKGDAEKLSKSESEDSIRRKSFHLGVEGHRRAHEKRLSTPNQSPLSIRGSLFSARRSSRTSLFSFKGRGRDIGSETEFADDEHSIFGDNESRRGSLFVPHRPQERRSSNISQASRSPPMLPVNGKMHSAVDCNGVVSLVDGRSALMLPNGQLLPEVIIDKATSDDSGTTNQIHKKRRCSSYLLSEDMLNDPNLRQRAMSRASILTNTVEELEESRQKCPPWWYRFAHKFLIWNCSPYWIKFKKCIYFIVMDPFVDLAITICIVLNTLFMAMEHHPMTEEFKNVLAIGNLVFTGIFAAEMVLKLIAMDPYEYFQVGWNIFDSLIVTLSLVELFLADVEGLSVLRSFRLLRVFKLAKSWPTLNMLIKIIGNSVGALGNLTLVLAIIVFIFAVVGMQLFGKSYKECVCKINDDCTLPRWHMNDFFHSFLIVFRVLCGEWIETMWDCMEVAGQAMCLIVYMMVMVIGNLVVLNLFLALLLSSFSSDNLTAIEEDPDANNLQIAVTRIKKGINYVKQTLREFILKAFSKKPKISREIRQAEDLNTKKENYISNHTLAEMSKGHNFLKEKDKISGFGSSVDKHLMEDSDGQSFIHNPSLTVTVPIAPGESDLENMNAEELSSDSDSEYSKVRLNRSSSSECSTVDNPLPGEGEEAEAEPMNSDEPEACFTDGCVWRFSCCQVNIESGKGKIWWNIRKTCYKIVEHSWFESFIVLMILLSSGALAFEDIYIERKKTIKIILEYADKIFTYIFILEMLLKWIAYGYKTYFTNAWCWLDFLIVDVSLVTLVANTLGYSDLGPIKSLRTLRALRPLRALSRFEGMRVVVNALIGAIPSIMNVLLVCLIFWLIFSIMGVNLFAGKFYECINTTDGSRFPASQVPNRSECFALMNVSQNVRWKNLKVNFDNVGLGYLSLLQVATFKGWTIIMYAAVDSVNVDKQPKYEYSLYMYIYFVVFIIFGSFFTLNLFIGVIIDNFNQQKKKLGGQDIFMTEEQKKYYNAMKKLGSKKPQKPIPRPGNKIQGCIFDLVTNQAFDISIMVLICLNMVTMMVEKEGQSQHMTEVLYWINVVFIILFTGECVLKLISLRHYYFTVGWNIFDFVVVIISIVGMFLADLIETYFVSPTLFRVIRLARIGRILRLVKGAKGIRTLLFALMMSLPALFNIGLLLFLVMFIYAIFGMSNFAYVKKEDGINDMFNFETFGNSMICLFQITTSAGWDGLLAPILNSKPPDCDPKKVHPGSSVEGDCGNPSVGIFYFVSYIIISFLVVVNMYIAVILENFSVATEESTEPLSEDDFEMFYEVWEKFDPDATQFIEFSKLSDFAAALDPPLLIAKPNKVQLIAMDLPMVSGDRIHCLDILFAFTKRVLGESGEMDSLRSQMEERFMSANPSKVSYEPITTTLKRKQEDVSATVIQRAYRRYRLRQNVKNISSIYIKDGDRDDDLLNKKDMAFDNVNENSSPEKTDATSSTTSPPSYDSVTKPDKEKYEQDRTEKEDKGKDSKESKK
Procedure: Binding of this radioligand was preformed in 5 mL borosilicate glass test tubes at room temperature. […] Non-specific binding was determined in the presence of 1 μM unlabelled compound. […] In 360 μL, membranes were incubated with 100 pM [3H]compound and increasing concentrations of Test Compound. Non-specific binding was defined in the presence of 1 μM unlabelled compound. Reactions were transferred and filtered through 96-well glass fiber/C filter plates presoaked with 0.5% polyethylene imine. […] Bound radioactivity was determined by liquid scintillation counting.

Consider `CS(=O)(=O)NC(=O)c1cc(C2CC2)c(OCC2(F)CCN(Cc3cc(Cl)ccc3C(F)(F)F)CC2)cc1F` [US9546164, 348], for which the pIC50 was 8.35.
The value for `CC1(COc2cc(F)c(C(=O)NS(C)(=O)=O)cc2C2CC2)CCN(Cc2cc(C(F)(F)F)ccc2C(F)(F)F)CC1` [US9546164, 107] was 8.68; that for `O=C(NS(=O)(=O)C1CC1)c1cc(C2CC2)c(OCC2CCN(S(=O)(=O)c3ccc4ccccc4c3)CC2)cc1F` [US9546164, 389] was 8.06.
In the case of `CS(=O)(=O)NC(=O)c1cc(C2CC2)c(OCC2(F)CN(C(c3ccccc3)c3ccccc3)C2)cc1F` [US9546164, 67], the pIC50 was 8.10.
With `CS(=O)(=O)NC(=O)c1cc(C2CC2)c(OCC2CCN(S(=O)(=O)c3cc(F)c(F)c(F)c3)CC2)cc1F` [US9546164, 380], the pIC50 was 7.39.
Regarding `CC(c1ccc(OC(F)(F)F)cc1)N1CC(COc2cc(F)c(C(=O)NS(C)(=O)=O)cc2C2CC2)C1` (stereo not drawn) [US9546164, 157], the pIC50 is 7.45.
Consider `CC(C)(C)OC(=O)N1CCC(COc2cc(F)c(C(=O)NS(C)(=O)=O)cc2Cl)CC1` [US9546164, 78], for which the negative logarithm of the IC50 (pIC50) was 6.31.
Consider `O=C(NS(=O)(=O)N1CCC1)c1cc(C2CC2)c(OCC2CC3CCC(C2)N3C(c2ccccc2)c2ccccc2)cc1F` (stereo not drawn) [US9546164, 49], for which the pIC50 is 8.37. Compared with the last compound, the pIC50 is 2.06 log units higher.

The term pIC50 denotes the negative decadic logarithm of the IC50, by convention in mol/L. The low end stands for a high IC50, the high end for a low IC50.
